The conditions of data set [1]: background statement; cited from earlier work.
In data set [2] the test system is airway resistance in experimental asthma model. Briefly: Effect on experimental asthma model in guinea pigs. The settings on record: Cavia porcellus, Table 7; for inhibition in vivo at 100 mg/kg: 100 mg/kg oral, OVA challenge, guinea pigs. In kind it is in vivo, guinea pigs (Male hadley). The gist of the method: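 Male Hartley guinea pigs sensitized i.p. with 5 mg ovalbumin three times weekly, challenged 2 weeks later by 1 min inhalation of 1% OVA. Compounds dosed orally at 100 mg/kg in 0.5% CMCNa; airway resistance recorded 30 min, inhibition % from maximum resistance versus vehicle (n=5).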

Data set [3] concerns homologous passive cutaneous anaphylaxis (PCA) reaction. Kind of data set: Effect on homologous passive cutaneous anaphylaxis (PCA) reaction in rats. Format: in vivo, rats (Male wistar rats). The settings on record: Rattus norvegicus, 0.5 h; 100 mg/kg oral, 1 hour before antigen, rats; Table 3. The gist of the method: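 Male Wistar rats (9 weeks) sensitized intradermally with anti-TNP-ascaris serum; 48 h later compounds dosed orally at 100 mg/kg in 0.5% CMCNa, n=5 per group. Challenge 1 h post-dose with i.v. TNP-As plus Evans Blue; blue-spot diameter measured at 30 min, inhibition calculated versus vehicle group.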

Data set [4] relates to contact dermatitis induced by picryl chloride. Kind of data set: Effect on contact dermatitis induced by picryl chloride in mice (delayed type hypersensitization). Format: in vivo. The settings on record: Mus musculus; 100 mg/kg oral, ear thickness 24 hours after challenge; Table 6; read-out: Inhibition (%) against the increase of ear thickness. The gist of the method: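 Mice sensitized on abdomen with 7 mg picryl chloride, ear-challenged 7 days later with 1% picryl chloride; compounds dosed orally at 100 mg/kg in 0.5% CMCNa 1 h before and 16 h after challenge.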

The text below walks through data of patent US5525595A, “3- or 4-glycosyloxybenzopyran derivative and antiallergic agent containing the derivative as active ingredient” (priority 1993, dated 1996).

For `O=C(O)c1cc(=O)c2c(OCC(O)COc3cccc4oc(C(=O)O)cc(=O)c34)cccc2o1` [DSCG, reference compound], the gastrointestinal absorbability result in data set [1] is “extremely poor”. The inhibition in vivo at 20 mg/kg in data set [2] (iv, positive control DSCG 20 mg/kg injected into the vein) worked out at 50.5%.

Regarding `CCCCCCCCCCOc1ccc2c(O[C@H]3O[C@H](CO)[C@@H](O)[C@H](O)[C@@H]3O)c(O)c(=O)oc2c1` [compound 81], the inhibition in vivo at 100 mg/kg in data set [2] was found to be 63.1%; in data set [3] it was 48.3%; in data set [4], 50.8%.

In the case of `CCCCCCCCCCCCOc1ccc2c(O[C@H]3O[C@H](CO)[C@@H](O)[C@H](O)[C@@H]3O)c(O)c(=O)oc2c1` [compound 82], the inhibition in vivo at 100 mg/kg in data set [2] amounted to 55.1%; in data set [3], 47.3%; in data set [4] it was 48.7%.

As for `CC(C)Oc1ccc2c(O[C@H]3O[C@H](CO)[C@@H](O)[C@H](O)[C@@H]3O)c(O)c(=O)oc2c1` [compound 83], the inhibition in vivo at 100 mg/kg in data set [2] stood at 46.9%; in data set [3], 49.3%; in data set [4], 49.1%.

For the molecule `CCC=CCCOc1ccc2c(O[C@H]3O[C@H](CO)[C@@H](O)[C@H](O)[C@@H]3O)c(O)c(=O)oc2c1` [compound 84], the values for the inhibition in vivo at 100 mg/kg in data set [2], in data set [3] and in data set [4] were 47.1%, 45.5% and 46.3%, respectively.

With `CC(C)=CCC/C(C)=C/COc1ccc2c(O[C@H]3O[C@H](CO)[C@@H](O)[C@H](O)[C@@H]3O)c(O)c(=O)oc2c1` [compound 85], the figures for the inhibition in vivo at 100 mg/kg in data set [2], in data set [3] and in data set [4] were 48.5%, 47.6% and 47.2%, respectively.

Turning to `O=C(Oc1ccc2c(O[C@H]3O[C@H](CO)[C@@H](O)[C@H](O)[C@@H]3O)c(O)c(=O)oc2c1)c1ccccc1` [compound 86], the inhibition in vivo at 100 mg/kg in data set [2] turned out to be 41.2%; in data set [3], 43%; in data set [4], 39.1%.

`COc1ccc2c(O[C@H]3O[C@H](CO)[C@@H](O)[C@H](O)[C@@H]3O)c(OC(=O)c3ccccc3)c(=O)oc2c1` [compound 87]: the inhibition in vivo at 100 mg/kg is 42.5% in data set [2], 44.7% in data set [3] and 42.4% in data set [4].

Regarding `CCCCOc1ccc2c(O[C@H]3O[C@H](CO)[C@@H](O)[C@H](O)[C@@H]3O)c(OC(C)=O)c(=O)oc2c1` [compound 88], the results for the inhibition in vivo at 100 mg/kg in data set [2], in data set [3] and in data set [4] were 43.5%, 45.8% and 40.2%, respectively.

For `CCCCCCCCCCCCOc1ccc2c(O[C@H]3O[C@H](CO)[C@@H](O)[C@H](O)[C@@H]3O)c(OC(C)=O)c(=O)oc2c1` [compound 89], the inhibition in vivo at 100 mg/kg in data set [2] turned out to be 43.2%; in data set [3], 43.7%; in data set [4], 41.2%.

`O=c1oc2cc(OCc3ccccc3)ccc2c(O[C@H]2O[C@H](CO)[C@@H](O)[C@H](O)[C@@H]2O)c1O` [compound 90]: the inhibition in vivo at 100 mg/kg was 40.5% in data set [2], 45.3% in data set [3] and 38.4% in data set [4].

On to `O=c1oc2cc(O)ccc2c(O[C@@H]2O[C@H](CO)[C@H](O)[C@H](O)[C@H]2O)c1O` [compound 91], for which the inhibition in vivo at 100 mg/kg is 45.1% in data set [2], 40.4% in data set [3] and 45.5% in data set [4].

Take `COc1ccc2c(O[C@@H]3O[C@H](CO)[C@H](O)[C@H](O)[C@H]3O)c(O)c(=O)oc2c1` [compound 92]: the inhibition in vivo at 100 mg/kg in data set [2] stood at 57.7%; in data set [3] it was 50.2%; in data set [4], 52.6%.

On to `CCCCOc1ccc2c(O[C@@H]3O[C@H](CO)[C@H](O)[C@H](O)[C@H]3O)c(O)c(=O)oc2c1` [compound 93], for which the values for the inhibition in vivo at 100 mg/kg in data set [2], in data set [3] and in data set [4] were 60.5%, 57.6% and 59.9%, respectively.

Consider `CCCCCCCCOc1ccc2c(O[C@@H]3O[C@H](CO)[C@H](O)[C@H](O)[C@H]3O)c(O)c(=O)oc2c1` [compound 94], for which the inhibition in vivo at 100 mg/kg is 82.6% in data set [2], 63.3% in data set [3] and 64.7% in data set [4].

Take `CCCCCCCCCCOc1ccc2c(O[C@@H]3O[C@H](CO)[C@H](O)[C@H](O)[C@H]3O)c(O)c(=O)oc2c1` [compound 95]: the inhibition in vivo at 100 mg/kg in data set [2] was 75.4%; in data set [3], 65.1%; in data set [4] it was 65.1%.

For `CCCCCCCCCCCCOc1ccc2c(O[C@@H]3O[C@H](CO)[C@H](O)[C@H](O)[C@H]3O)c(O)c(=O)oc2c1` [compound 96], the inhibition in vivo at 100 mg/kg in data set [2] worked out at 73.1%; in data set [3], 56.6%; in data set [4] it was 57.8%.

For `CC(C)Oc1ccc2c(O[C@@H]3O[C@H](CO)[C@H](O)[C@H](O)[C@H]3O)c(O)c(=O)oc2c1` [compound 97], the inhibition in vivo at 100 mg/kg in data set [2] was found to be 63.2%; in data set [3] it was 55.7%; in data set [4], 58.7%.

`CCC=CCCOc1ccc2c(O[C@@H]3O[C@H](CO)[C@H](O)[C@H](O)[C@H]3O)c(O)c(=O)oc2c1` [compound 98]: the values for the inhibition in vivo at 100 mg/kg in data set [2], in data set [3] and in data set [4] were 72.8%, 60.2% and 61.2%, respectively.

In the case of `CC(C)=CCC/C(C)=C/COc1ccc2c(O[C@@H]3O[C@H](CO)[C@H](O)[C@H](O)[C@H]3O)c(O)c(=O)oc2c1` [compound 99], the results for the inhibition in vivo at 100 mg/kg in data set [2], in data set [3] and in data set [4] were 77.7%, 58.6% and 59.4%, respectively.

Consider `O=C(Oc1ccc2c(O[C@@H]3O[C@H](CO)[C@H](O)[C@H](O)[C@H]3O)c(O)c(=O)oc2c1)c1ccccc1` [compound 100], for which the values for the inhibition in vivo at 100 mg/kg in data set [2], in data set [3] and in data set [4] were 67.8%, 42.6% and 44.9%, respectively.

In the case of `COc1ccc2c(O[C@@H]3O[C@H](CO)[C@H](O)[C@H](O)[C@H]3O)c(OC(=O)c3ccccc3)c(=O)oc2c1` [compound 101], the inhibition in vivo at 100 mg/kg in data set [2] was 56.2%; in data set [3] it was 45.2%; in data set [4], 47.2%.

Turning to `CCCCOc1ccc2c(O[C@@H]3O[C@H](CO)[C@H](O)[C@H](O)[C@H]3O)c(OC(C)=O)c(=O)oc2c1` [compound 102], the inhibition in vivo at 100 mg/kg in data set [2] was found to be 50.3%; in data set [3], 46.3%; in data set [4] it was 46.3%.

For the molecule `CCCCCCCCCCCCOc1ccc2c(O[C@@H]3O[C@H](CO)[C@H](O)[C@H](O)[C@H]3O)c(OC(C)=O)c(=O)oc2c1` [compound 103], the inhibition in vivo at 100 mg/kg in data set [2] was found to be 65.3%; in data set [3], 51.1%; in data set [4], 48.3%.

`O=c1oc2cc(OCc3ccccc3)ccc2c(O[C@@H]2O[C@H](CO)[C@H](O)[C@H](O)[C@H]2O)c1O` [compound 104]: the inhibition in vivo at 100 mg/kg in data set [2] worked out at 63.3%; in data set [3] it was 44.2%; in data set [4], 46.1%.

With `CC(=O)Oc1ccc2c(O[C@@H]3O[C@H](CO)[C@H](O)[C@H](O)[C@H]3O)c(O)c(=O)oc2c1` [compound 105], the inhibition in vivo at 100 mg/kg in data set [2] was found to be 58.8%; in data set [3] it was 51.4%; in data set [4] it was 47.8%.

Consider `CC(=O)Oc1ccc2c(O[C@H]3O[C@H](CO)[C@@H](O)[C@H](O)[C@@H]3O)c(O)c(=O)oc2c1` [compound 106], for which the inhibition in vivo at 100 mg/kg came out at 46.2% in data set [2], 42.2% in data set [3] and 40.1% in data set [4].

Consider `CC(=O)Oc1ccc2c(O[C@@H]3O[C@H](CO)[C@@H](O)[C@H](O)[C@H]3O)c(O)c(=O)oc2c1` [compound 116], for which the inhibition in vivo at 100 mg/kg in data set [2] stood at 55.3%; in data set [3], 48%; in data set [4] it was 45.1%.

For the molecule `CCCCCCOc1ccc2c(O[C@@H]3O[C@H](CO)[C@H](O)[C@H](O)[C@H]3O)c(O)c(=O)oc2c1` [compound 120], the inhibition in vivo at 100 mg/kg turned out to be 78.9% in data set [2], 64.3% in data set [3] and 65.2% in data set [4].

As to `CCCCCCOc1ccc2c(O[C@@H]3O[C@H](CO)[C@@H](O)[C@H](O)[C@H]3O)c(O)c(=O)oc2c1` [compound 121], the inhibition in vivo at 100 mg/kg was determined as 75.1% in data set [2], 63.7% in data set [3] and 63.7% in data set [4].

With `CCCCCCOc1ccc2c(O[C@H]3O[C@H](CO)[C@@H](O)[C@H](O)[C@@H]3O)c(O)c(=O)oc2c1` [compound 122], the values for the inhibition in vivo at 100 mg/kg in data set [2], in data set [3] and in data set [4] were 62.1%, 52.3% and 53.2%, respectively.
